Measurements taken from patent publication US20060014702A1, “Antimicrobial agent” (priority 2002, published 2006).
Values after ≈ are worked out from the molar mass of the structure shown.

How the values were obtained:
Test in all cases: Minimum Inhibitory Concentration (MIC) assay
Format in all cases: cell-based
Bacillus subtilis = settings: LB broth, 37° C., 6 hours
Method: (§1) Inhibition of various bacteria by compounds 4 (n=9) and 6 (n=9) is described in Table 1. The biological data were determined by minimum Inhibitory Concentration (MIC) Assays. Each compound was added to 4 ml LB broth at a starting concentration of 200 μg/ml. Serial dilutions were then made, 1 in 2 at each step, ending with 0.2 μg/ml. 5 μL of a saturated culture was added to each serial dilution, and incubated at 37° C. with shaking for 6 hours. The MIC was then determined as the lowest concentration showing inhibited bacterial growth.

Enterococcus faecalis = settings: LB broth, 37° C., 6 hours
Method: as §1

Mycobacterium smegmatis = settings: Mycolicibacterium smegmatis, LB broth, 37° C., 6 hours
Method: as §1

Staphylococcus aureus = settings: LB broth, 37° C., 6 hours
Method: as §1

Row | MIC (Bacillus subtilis) | MIC (Enterococcus faecalis) | MIC (Mycobacterium smegmatis) | MIC (Staphylococcus aureus) | Compound
1 | 25 µg/mL (≈ 74.3 µM) | > 200 µg/mL | < 0.2 µg/mL | < 0.2 µg/mL | CCCCCCCCCCS[C@@H]1O[C@@H]([C@H](O)CO)[C@H](O)[C@H]1O [4 (n = 9), Decyl 1-thio-β-D-galactofuranoside]
2 | > 200 µg/mL | 200 µg/mL (≈ 408 µM) | < 0.2 µg/mL | < 0.2 µg/mL | CCCCCCCCCCC(CCCCCCCCCC)S[C@@H]1O[C@@H]([C@H](O)CO)[C@H](O)[C@H]1O [6 (n = 9), 11-heneicosanyl 1-thio-β-D-galactofuranoside]
